The values below come from US5475000A, “3-(substituted tetrazolyl)-4-oxo-4H-pyrido-[1,2-a]pyrimidines, salts thereof, pharmaceutical compositions containing them and process for preparing same” (Chinoin Gyogyszer-es Vegyeszeti Termekek Gyara Rt., priority 1991, dated 1995).

Where a name gives a salt, the structure may show the parent alone.

In assay [1] the test system is gastric mucosa lesion induced by 96% ethanol containing hydrochloric acid. Briefly: Protective action against the gastric mucosa lesion induced by 96% ethanol containing hydrochloric acid (acid-ethanol gastric ulcer), p.o. The assay is classed as in vivo. The following applies: Rattus norvegicus, po, rats, 0.5 ml of 1:0.02 mixture of 96% ethanol and hydrochloric acid, read-out: ID50 p.o. mg/kg, gastric mucosa lesion induced by 96% ethanol containing hydrochloric acid. The method, then: As an example, the protective action of the compounds according to the invention against gastric ulcer induced by 0.5 ml of a 1:0.02 volume ratio mixture of 96% ethanol and hydrochloric acid is illustrated in Table 1. [for the method, see: Gastroenterology 77, 433 (1979)]
Protective action in rats of the compounds according to the
invention against the gastric mucosa lesion induced by 96%
ethanol containing hydrochloric acid

Assay [2] concerns indomethacin-induced gastric mucosa lesion. Put plainly: Inhibition of the indomethacin-induced gastric mucosa lesion, p.o. It is filed as in vivo. Particulars: Rattus norvegicus, po, rats, read-out: ID50 p.o. mg/kg, indomethacin-induced gastric mucosa lesion. An excerpt:
The effect of the compounds to the invention, given as examples, against the indomethacin-induced ulcer [Arch. Int.
Inhibition of the indomethacin-induced gastric mucosa

Assay [3] relates to indomethacin-induced duodenal ulcer. Briefly: Indomethacin-induced duodenal/small intestine ulcer formation (method of Tsuromi), with lethality caused by indomethacin. It is filed as in vivo, rat. The following applies: 50 mg/kg on 4 consecutive days, 15 mg/kg oral indomethacin on 2nd day, vs control. On the procedure: According to the method of Tsuromi (J. Pharm. Dyn. 1980, 3, 659) the compound was administered to the rats in a dose of 50 mg/kg on 4 consecutive days. On the 2nd day a 15 mg/kg oral dose of indomethacin was given to the rats. The ulcer formation was determined in the small intestine on the 3rd day following the administration of the indomethacin. In comparison to the control, the compound according to the invention exerted an inhibition of 20% on the ulcer formation and also an inhibition of 100% on the lethality caused by indomethacin.

Assay [4] concerns gastrointestinal ulceration induced by indomethacin. Put plainly: Gastrointestinal ulceration induced by indomethacin (known compound). It is filed as in vivo.

`Cc1cccn2c(=O)c(-c3nnnn3C(C)C)cnc12` [3-(1-isopropyl-1H-tetrazol-5-yl)-9-methyl-4-oxo-4H-pyrido[1,2-a]pyrimidine]: the ED50 in assay [1] amounted to 0.34 mg/kg.

As to `C=CCn1nnc(-c2cnc3c(C)cccn3c2=O)n1` [3-(2-allyl-2H-tetrazol-5-yl)-9-methyl-4-oxo-4H-pyrido[1,2-a]pyrimidine], the ED50 in assay [2] came out at 2.5 mg/kg; in assay [1], 2.9 mg/kg.

As to `CCCCn1nnc(-c2cnc3c(C)cccn3c2=O)n1` [3-(2-butyl-2H-tetrazol-5-yl)-9-methyl-4-oxo-4H-pyrido[1,2-a]pyrimidine], in assay [1], the ED50 was determined as 2 mg/kg.

`CC(C)n1nnc(-c2cnc3ccccn3c2=O)n1` [3-(2-isopropyl-2H-tetrazol-5-yl)-4-oxo-4H-pyrido[1,2-a]pyrimidine]: the ED50 in assay [2] came out at 4 mg/kg; in assay [1], 2.2 mg/kg.

For the compound `Cc1cccn2c(=O)c(-c3nnn(C(C)C)n3)cnc12` [3-(2-isopropyl-2H-tetrazol-5-yl)-9-methyl-4-oxo-4H-pyrido[1,2-a]pyrimidine], the ED50 in assay [2] is 2.6 mg/kg; in assay [1], 0.23 mg/kg.

Regarding `CCCn1nnc(-c2cnc3c(C)cccn3c2=O)n1` [3-(2-propyl-2H-tetrazol-5-yl)-9-methyl-4-oxo-4H-pyrido[1,2-a]pyrimidine], the figures for the ED50 in assay [2] and in assay [1] were 5.5 mg/kg and 0.05 mg/kg, respectively. In assay [3] (determined on 3rd day following indomethacin), the “inhibition on the ulcer formation in the small intestine” value was 20%. The “inhibition on the lethality caused by indomethacin” value in assay [3] turned out to be 100%.

In the case of `Cc1cccn2c(=O)c(-c3nn[nH]n3)cnc12` [9-methyl-3-(5-tetrazolyl)-4-oxo-4-H-pyrido[1,2-a]pyrimidine potassium salt], the “prevention of the gastrointestinal ulceration induced by indomethacin” value in assay [4] is “did not prevent”.
